Data taken from PMC11995078, “Protocol for high-throughput screening of SIRT7 inhibitors using fluorescent peptide technology” (STAR Protocols, 2025).

Biological target: T1, Sirtuin 7 (SIRT7) (Homo sapiens, UniProt Q9NRC8)
T1 construct: his-tagged full length SIRT7 (pET-28a, E. coli BL21(DE3))
T1 sequence (Q9NRC8 1-400): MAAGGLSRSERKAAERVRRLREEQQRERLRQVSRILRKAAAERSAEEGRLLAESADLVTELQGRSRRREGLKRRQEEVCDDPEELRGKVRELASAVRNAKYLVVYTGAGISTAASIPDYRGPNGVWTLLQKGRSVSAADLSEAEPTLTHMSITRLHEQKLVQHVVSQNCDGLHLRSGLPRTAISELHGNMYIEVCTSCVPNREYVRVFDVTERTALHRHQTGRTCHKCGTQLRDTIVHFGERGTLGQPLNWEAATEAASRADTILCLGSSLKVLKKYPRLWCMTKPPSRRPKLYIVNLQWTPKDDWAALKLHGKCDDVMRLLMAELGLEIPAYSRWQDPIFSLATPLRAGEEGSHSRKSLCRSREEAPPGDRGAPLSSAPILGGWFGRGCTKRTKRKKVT
Assay: fluorescent MCA-peptide (H3K18) deacylation assay with purified SIRT7, dose-response
Format: biochemical

IC50: 12.7 µM
SMILES: COC(=O)/C(=C\C(=O)c1ccc(O)c(O)c1)c1ccc(O)c(O)c1 [YZL-51N]
